# Measured values published in US6610706B1, “Crystalline form of 6-hydroxy-3-(4-[2-(piperidin-1-yl)ethoxy]phenoxy)-2-(4-methoxyphenyl)benzo[b]thiophene hydrochloride” (Eli Lilly and Company, priority 1999, dated 2003).
# Legend:
# Assay type in all cases: physicochemical
# [1] = Hygroscopicity / moisture sorption isotherms (VTI vacuum moisture balance)
# Procedure: Hygroscopicicity studies were performed on F-I and F-III. Upon initial exposure of the samples to approximately 5% RH, there was an immediate weight gain of 1.5% and 1.7% moisture for F-I and F-III, respectively, equivalent to approximately 0.5 mole of water. Both forms show a continuous sorption of moisture through the entire humidity range, which is likely due to incorporation of water molecules in the lattices. The moisture sorption profiles for F-I and F-III reveal that these forms are essentially non-stoichiometric hydrates. At ambient relative humidity (about 50% RH), F-I contains approximately 1.7% water, corresponding to 0.5 moles of water, while F-III has sorbed about 3.0% water which corresponds to about 0.85 moles of water. The bulk forms of F-I and F-III rapidly equilibrate with the atmosphere, so that the water content observed by analytical techniques is a reflection of the relative humidity at the time of data collection. Lot-to-lot differences observed in the DSC data likely results from the samples being hydrated to different extents due to different ambient storage conditions. Hygroscopicity measurements were made for F-I and F-III using the VTI method as follows. Each sample was dried under vacuum at 60° C. until no further weight loss was detected, at which time the sample chamber was brought to 0% relative humidity. Moisture sorption isotherms were obtained at 25° C. using a VTI vacuum moisture balance with the following conditions: sample size 10-15 mg, adsorption/desorption range 0-95% relative humidity, step interval 5%, sample interval 10 minutes.
# [2] = Stability of crystal forms stored at different relative humidities (XRD); conditions: entire relative humidity range (0-95% RH)
# Procedure: XRD patterns were obtained for samples of F-I and F-III stored at different relative humidities (0, 22, 50, and 80%). There is a gradual shifting of the initial (0% RH) F-III peaks at about 13.8, 17.6, 18.0, 20.5 and 24.0° in 2θ as well as slight shifting of less intense peaks, as the relative humidity is increased. These observed changes in the XRD patterns of F-III indicate that the unit cell dimensions are changing, presumably to accommodate weakly held water molecules as the relative humidity is increased.
# A similar experiment was carried out on F-I to determine whether varying the relative humidity would have a similar effect on its lattice (0, 25, 52, 73 and 95% RH). Very slight shifting of the 0% RH peaks at about 7.7, 18.3, 18.5, 20.5, 20.8° in 2θ is observed as the relative humidity is increased. […] The shifting of peaks in the XRD patterns of F-I is less dramatic than the peak shifts observed as F-III was exposed to different relative humidities.
# XRD patterns were obtained on a Siemens D5000 X-ray powder diffractometer, equipped with a CuKα source (λ=1.54056 Å) and a Kevex solid-state detector, operating at 50 kV and 40 mA. Each sample was scanned between 4° and 35° in 2θ. Samples were allowed to equilibrate for at least 30 minutes at the desired temperature and/or relative humidity before data collection.
# [3] = Aqueous solubility and dissolution rate comparison of crystal forms; conditions: comparison of the two forms
# [4] = Stability at ambient temperature relative to arzoxifene prepared per '474; conditions: relative to arzoxifene produced by the procedures taught in '474
structure (smiles),measurement,setting,value
"COc1ccc(-c2sc3cc(O)ccc3c2Oc2ccc(OCCN3CCCCC3)cc2)cc1.Cl [F-III, 6-hydroxy-3-(4-[2-(piperidin-1-yl)ethoxy]phenoxy)-2-(4-methoxyphenyl)benzo[b]thiophene hydrochloride]",water content at ambient relative humidity,[1]; about 50% RH,about 3.0%
same,"water content at ambient relative humidity, in moles of water",[1]; about 50% RH,about 0.85 moles
same,water equivalent of the initial weight gain,[1]; approximately 5% RH,approximately 0.5 mole
same,immediate weight gain (moisture) upon initial exposure,"[1]; approximately 5% RH, 25° C., after vacuum drying at 60° C.",1.7%
same,stability over relative humidity range,[2],stable over the entire relative humidity range
same,aqueous solubilities (F-I versus F-III),[3],comparable
same,dissolution rates (F-I versus F-III),[3],comparable
same,stability at ambient temperature,[4],more stable at ambient temperature
